system: rgRSV224 virus; test: Antiviral activity: inhibition of rgRSV224 (GFP-expressing RSV) replication in HeLa cells, GFP expression read-out; assay type: cell-based, respiratory syncytial virus (RSV); details: human respiratory syncytial virus, HeLa, read-out: RSV HELA pEC50, rgRSV224 virus (MOI=1) in HeLa cells, GFP read-out (converted)
In short: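 HeLa cells (3,000/well) were infected with GFP-expressing rgRSV224 (MOI=1) in the presence of 9 serial 4-fold compound dilutions (0.05% DMSO) and incubated at 37° C, 5% CO2. After three days, GFP expression was measured by laser microscopy. EC50 is the concentration giving 50% inhibition of GFP expression.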

Compound	EC50 [nM]
CCc1cc(C(=O)N2CCCc3ccccc3C2C)nc2cc(-c3ccc(C(=O)O)cc3F)nn12 (stereo not drawn) [Compound K8]	437
CCc1cc(C(=O)N2CCn3cccc3C2C)nc2cc(-c3ccc(C(=O)O)cc3F)nn12 (stereo not drawn) [Compound K9]	525
CCc1cc(C(=O)N2CCCCCC2C)nc2cc(-c3ccc(C(=O)NC4CC4)cc3F)nn12 (stereo not drawn) [Compound L1]	129
CCc1cc(C(=O)N2CCCCCC2C)nc2cc(-c3ccc(C(=O)NCCN(C)C)cc3F)nn12 (stereo not drawn) [Compound L2]	550
CCCNC(=O)c1ccc(-c2cc3nc(C(=O)N4CCCCCC4C)cc(CC)n3n2)c(F)c1 (stereo not drawn) [Compound L3]	240
CCc1cc(C(=O)N2CCCCCC2C)nc2cc(-c3ccc(C(=O)NCCNC(C)=O)cc3F)nn12 (stereo not drawn) [Compound L4]	234
CCc1cc(C(=O)N2CCCCCC2C)nc2cc(-c3ccc(C(=O)NCCO)cc3F)nn12 (stereo not drawn) [Compound L5]	158
CCc1cc(C(=O)N2CCCCCC2C)nc2cc(-c3ccc(C(=O)NO)cc3F)nn12 (stereo not drawn) [Compound L6]	148
CCc1cc(C(=O)N2CCCCCC2C)nc2cc(-c3ccc(C(=O)NCc4ccco4)cc3F)nn12 (stereo not drawn) [Compound L7]	240
CCc1cc(C(=O)N2CCCCCC2C)nc2cc(-c3ccc(C(=O)NCc4cccs4)cc3F)nn12 (stereo not drawn) [Compound L8]	324
CCc1cc(C(=O)N2CCCCCC2C)nc2cc(-c3ccc(C(=O)NNCC4CC4)cc3F)nn12 (stereo not drawn) [Compound L9]	372
CCc1cc(C(=O)N2CCCCCC2C)nc2cc(-c3ccc(C(=O)NS(C)(=O)=O)cc3F)nn12 (stereo not drawn) [Compound L10]	2690
CCc1cc(C(=O)N2CCc3ccccc3C2C)nc2cc(-c3ccc(C(=O)NC(C)C(=O)O)cc3F)nn12 (stereo not drawn) [Compound L11]	631
CCc1cc(C(=O)N2CCCCCC2C)nc2cc(-c3ccc(/C=C/C(=O)O)cc3F)nn12 (stereo not drawn) [Compound M1]	174
CNc1cc(C(=O)N2CCCCC[C@H]2C)nc2cc(-c3ccc(/C=C/C(=O)O)cc3F)nn12 [Compound M3]	251
CC1c2ccccc2CCN1C(=O)c1cc(N(C)C)n2nc(-c3ccc(/C=C/C(=O)O)cc3F)cc2n1 (stereo not drawn) [Compound M10]	47.9
CCc1cc(C(=O)N2CCc3ccccc3C2C)nc2cc(-c3ccc(/C=C/C(=O)O)cc3F)nn12 (stereo not drawn) [Compound M11]	38
C[C@@H]1CCCCCN1C(=O)c1cc(N(C)C)n2nc(-c3ncc(/C=C/C(=O)O)cc3Cl)cc2n1 [Compound M12]	4070
C[C@@H]1CCCCCN1C(=O)c1cc(C2(C)CC2)n2nc(-c3ccc(/C=C/C(=O)O)cc3F)cc2n1 [Compound M20]	32.4
C[C@@H]1CCCCCN1C(=O)c1cc(C2CCC2)n2nc(-c3cccc(/C=C/C(=O)O)c3F)cc2n1 [Compound M23]	44.7
CCOc1cc(C(=O)N2CCCCC[C@H]2C)nc2cc(-c3ccc(/C=C/C(=O)O)cc3F)nn12 [Compound M24]	380
CC(C)Cc1cc(C(=O)N2CCCCC[C@H]2C)nc2cc(-c3cccc(/C=C/C(=O)O)c3F)nn12 [Compound M29]	38.9
C[C@@H]1CCCCCN1C(=O)c1cc(-c2cnn(C)c2)n2nc(-c3ccc(/C=C/C(=O)O)cc3F)cc2n1 [Compound M30]	40.7

system: not listed separately; test: Cytotoxicity in HeLa cells, ATP content measured with the ATPlite kit; assay type: cell-based; details: human, TOX HELA pCC50

Compound	CC50 at 3 days [nM]
CCc1cc(C(=O)N2CCCc3ccccc3C2C)nc2cc(-c3ccc(C(=O)O)cc3F)nn12 (stereo not drawn) [Compound K8]	> 25100
CCc1cc(C(=O)N2CCn3cccc3C2C)nc2cc(-c3ccc(C(=O)O)cc3F)nn12 (stereo not drawn) [Compound K9]	> 25100
CCc1cc(C(=O)N2CCCCCC2C)nc2cc(-c3ccc(C(=O)NC4CC4)cc3F)nn12 (stereo not drawn) [Compound L1]	> 25100
CCc1cc(C(=O)N2CCCCCC2C)nc2cc(-c3ccc(C(=O)NCCN(C)C)cc3F)nn12 (stereo not drawn) [Compound L2]	> 25100
CCCNC(=O)c1ccc(-c2cc3nc(C(=O)N4CCCCCC4C)cc(CC)n3n2)c(F)c1 (stereo not drawn) [Compound L3]	> 25100
CCc1cc(C(=O)N2CCCCCC2C)nc2cc(-c3ccc(C(=O)NCCNC(C)=O)cc3F)nn12 (stereo not drawn) [Compound L4]	> 25100
CCc1cc(C(=O)N2CCCCCC2C)nc2cc(-c3ccc(C(=O)NCCO)cc3F)nn12 (stereo not drawn) [Compound L5]	> 25100
CCc1cc(C(=O)N2CCCCCC2C)nc2cc(-c3ccc(C(=O)NO)cc3F)nn12 (stereo not drawn) [Compound L6]	20400
CCc1cc(C(=O)N2CCCCCC2C)nc2cc(-c3ccc(C(=O)NCc4ccco4)cc3F)nn12 (stereo not drawn) [Compound L7]	> 25100
CCc1cc(C(=O)N2CCCCCC2C)nc2cc(-c3ccc(C(=O)NCc4cccs4)cc3F)nn12 (stereo not drawn) [Compound L8]	> 25100
CCc1cc(C(=O)N2CCCCCC2C)nc2cc(-c3ccc(C(=O)NNCC4CC4)cc3F)nn12 (stereo not drawn) [Compound L9]	> 25100
CCc1cc(C(=O)N2CCCCCC2C)nc2cc(-c3ccc(C(=O)NS(C)(=O)=O)cc3F)nn12 (stereo not drawn) [Compound L10]	> 25100
CCc1cc(C(=O)N2CCc3ccccc3C2C)nc2cc(-c3ccc(C(=O)NC(C)C(=O)O)cc3F)nn12 (stereo not drawn) [Compound L11]	> 25100
CCc1cc(C(=O)N2CCCCCC2C)nc2cc(-c3ccc(/C=C/C(=O)O)cc3F)nn12 (stereo not drawn) [Compound M1]	> 25100
CNc1cc(C(=O)N2CCCCC[C@H]2C)nc2cc(-c3ccc(/C=C/C(=O)O)cc3F)nn12 [Compound M3]	> 25100
CC1c2ccccc2CCN1C(=O)c1cc(N(C)C)n2nc(-c3ccc(/C=C/C(=O)O)cc3F)cc2n1 (stereo not drawn) [Compound M10]	20000
CCc1cc(C(=O)N2CCc3ccccc3C2C)nc2cc(-c3ccc(/C=C/C(=O)O)cc3F)nn12 (stereo not drawn) [Compound M11]	> 25100
C[C@@H]1CCCCCN1C(=O)c1cc(N(C)C)n2nc(-c3ncc(/C=C/C(=O)O)cc3Cl)cc2n1 [Compound M12]	> 25100
C[C@@H]1CCCCCN1C(=O)c1cc(C2(C)CC2)n2nc(-c3ccc(/C=C/C(=O)O)cc3F)cc2n1 [Compound M20]	36300
C[C@@H]1CCCCCN1C(=O)c1cc(C2CCC2)n2nc(-c3cccc(/C=C/C(=O)O)c3F)cc2n1 [Compound M23]	> 100000
CCOc1cc(C(=O)N2CCCCC[C@H]2C)nc2cc(-c3ccc(/C=C/C(=O)O)cc3F)nn12 [Compound M24]	> 100000
CC(C)Cc1cc(C(=O)N2CCCCC[C@H]2C)nc2cc(-c3cccc(/C=C/C(=O)O)c3F)nn12 [Compound M29]	67600
C[C@@H]1CCCCCN1C(=O)c1cc(-c2cnn(C)c2)n2nc(-c3ccc(/C=C/C(=O)O)cc3F)cc2n1 [Compound M30]	28200

system: not given; test: not given; details: not given

Compound	melting point [°C]
CCc1cc(C(=O)N2CCCc3ccccc3C2C)nc2cc(-c3ccc(C(=O)O)cc3F)nn12 (stereo not drawn) [Compound K8]	105 to 110
CCc1cc(C(=O)N2CCn3cccc3C2C)nc2cc(-c3ccc(C(=O)O)cc3F)nn12 (stereo not drawn) [Compound K9]	155 to 160
CCc1cc(C(=O)N2CCCCCC2C)nc2cc(-c3ccc(C(=O)NC4CC4)cc3F)nn12 (stereo not drawn) [Compound L1]	196
CCc1cc(C(=O)N2CCCCCC2C)nc2cc(-c3ccc(C(=O)NCCN(C)C)cc3F)nn12 (stereo not drawn) [Compound L2]	178
CCCNC(=O)c1ccc(-c2cc3nc(C(=O)N4CCCCCC4C)cc(CC)n3n2)c(F)c1 (stereo not drawn) [Compound L3]	188
CCc1cc(C(=O)N2CCCCCC2C)nc2cc(-c3ccc(C(=O)NCCNC(C)=O)cc3F)nn12 (stereo not drawn) [Compound L4]	174
CCc1cc(C(=O)N2CCCCCC2C)nc2cc(-c3ccc(C(=O)NCCO)cc3F)nn12 (stereo not drawn) [Compound L5]	177
CCc1cc(C(=O)N2CCCCCC2C)nc2cc(-c3ccc(C(=O)NO)cc3F)nn12 (stereo not drawn) [Compound L6]	180
CCc1cc(C(=O)N2CCCCCC2C)nc2cc(-c3ccc(C(=O)NCc4ccco4)cc3F)nn12 (stereo not drawn) [Compound L7]	168
CCc1cc(C(=O)N2CCCCCC2C)nc2cc(-c3ccc(C(=O)NCc4cccs4)cc3F)nn12 (stereo not drawn) [Compound L8]	156
CCc1cc(C(=O)N2CCCCCC2C)nc2cc(-c3ccc(C(=O)NNCC4CC4)cc3F)nn12 (stereo not drawn) [Compound L9]	140
CCc1cc(C(=O)N2CCCCCC2C)nc2cc(-c3ccc(C(=O)NS(C)(=O)=O)cc3F)nn12 (stereo not drawn) [Compound L10]	194
CCc1cc(C(=O)N2CCc3ccccc3C2C)nc2cc(-c3ccc(C(=O)NC(C)C(=O)O)cc3F)nn12 (stereo not drawn) [Compound L11]	165 to 170
CCc1cc(C(=O)N2CCCCCC2C)nc2cc(-c3ccc(/C=C/C(=O)O)cc3F)nn12 (stereo not drawn) [Compound M1]	205 to 210
CNc1cc(C(=O)N2CCCCC[C@H]2C)nc2cc(-c3ccc(/C=C/C(=O)O)cc3F)nn12 [Compound M3]	198 to 200
CC1c2ccccc2CCN1C(=O)c1cc(N(C)C)n2nc(-c3ccc(/C=C/C(=O)O)cc3F)cc2n1 (stereo not drawn) [Compound M10]	243 to 245
CCc1cc(C(=O)N2CCc3ccccc3C2C)nc2cc(-c3ccc(/C=C/C(=O)O)cc3F)nn12 (stereo not drawn) [Compound M11]	225 to 230
C[C@@H]1CCCCCN1C(=O)c1cc(N(C)C)n2nc(-c3ncc(/C=C/C(=O)O)cc3Cl)cc2n1 [Compound M12]	197 to 199
C[C@@H]1CCCCCN1C(=O)c1cc(C2(C)CC2)n2nc(-c3ccc(/C=C/C(=O)O)cc3F)cc2n1 [Compound M20]	228.12
C[C@@H]1CCCCCN1C(=O)c1cc(C2CCC2)n2nc(-c3cccc(/C=C/C(=O)O)c3F)cc2n1 [Compound M23]	231.54
CCOc1cc(C(=O)N2CCCCC[C@H]2C)nc2cc(-c3ccc(/C=C/C(=O)O)cc3F)nn12 [Compound M24]	213.66
CC(C)Cc1cc(C(=O)N2CCCCC[C@H]2C)nc2cc(-c3cccc(/C=C/C(=O)O)c3F)nn12 [Compound M29]	176
C[C@@H]1CCCCCN1C(=O)c1cc(-c2cnn(C)c2)n2nc(-c3ccc(/C=C/C(=O)O)cc3F)cc2n1 [Compound M30]	163

From patent US11084826B2, “RSV antiviral pyrazolo- and triazolo-pyrimidine compounds” (Janssen Sciences Ireland Unlimited Company, priority 2015, dated 2021)
